Measurements: US20110257215A1, “NOVEL CO-CRYSTAL OF TIOTROPIUM BROMIDE” (Boehringer Ingelheim Pharma GmbH CO.KG, priority 2006, published 2011)

Settings: solid crystalline form; no method or figures given

C[N+]1(C)C2CC(OC(=O)C(O)(c3cccs3)c3cccs3)CC1C1OC12.NC(N)=O.[Br-] (stereo not shown) [tiotropium bromide-urea co-crystal]
hygroscopical behaviour: only very little hygroscopical behaviour
